Columns and labels:
Assay in all cases: relative viability (nuclei count vs DMSO), 5 days (fraction); higher = more cells survive
VE-821 + Lapatinib = compound: CS(=O)(=O)c1ccc(-c2cnc(N)c(C(=O)Nc3ccccc3)n2)cc1 [VE-821] + CS(=O)(=O)CCNCc1ccc(-c2ccc3ncnc(Nc4ccc(OCc5cccc(F)c5)c(Cl)c4)c3c2)o1 [Lapatinib] (partner 2 µM)
Procedure, shortened: (§1)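 Values are medians from duplicate plates. Each reflects relative viability, defined as the nuclei count of treated wells over that of vehicle wells. Lung cancer cell lines in 1536-well plates were pin-tool dosed one day after seeding with one drug alone or with a fixed anchor-drug dose plus five library-drug doses (not always all listed) in √10 steps, then fixed, stained and imaged at 4× after 5 days.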

VE-821 + Foretinib = compound: CS(=O)(=O)c1ccc(-c2cnc(N)c(C(=O)Nc3ccccc3)n2)cc1 [VE-821] + COc1cc2c(Oc3ccc(NC(=O)C4(C(=O)Nc5ccc(F)cc5)CC4)cc3F)ccnc2cc1OCCCN1CCOCC1 [Foretinib] (partner 0.25 µM)
Procedure, shortened: as §1

Ruxolitinib + Pictilisib = compound: N#CC[C@H](C1CCCC1)n1cc(-c2ncnc3[nH]ccc23)cn1 [Ruxolitinib] + CS(=O)(=O)N1CCN(Cc2cc3nc(-c4cccc5[nH]ncc45)nc(N4CCOCC4)c3s2)CC1 [Pictilisib] (partner 1 µM)
Procedure, shortened: as §1

VE-821 + Pictilisib = compound: CS(=O)(=O)c1ccc(-c2cnc(N)c(C(=O)Nc3ccccc3)n2)cc1 [VE-821] + CS(=O)(=O)N1CCN(Cc2cc3nc(-c4cccc5[nH]ncc45)nc(N4CCOCC4)c3s2)CC1 [Pictilisib] (partner 1 µM)
Procedure, shortened: as §1

**Q.** Which results are given for UMC-11?
**A.** relative viability (VE-821 + Lapatinib; first compound 0.08 µM): 1.23; relative viability (VE-821 + Lapatinib; first compound 0.253 µM): 0.845; relative viability (VE-821 + Lapatinib; first compound 0.8 µM): 0.916; relative viability (VE-821 + Lapatinib; first compound 2.53 µM): 1.12; relative viability (VE-821 + Lapatinib; first compound 8 µM): 0.644; relative viability (VE-821 + Foretinib; first compound 0.08 µM): 1.09; relative viability (VE-821 + Foretinib; first compound 0.253 µM): 1.01; relative viability (VE-821 + Foretinib; first compound 0.8 µM): 1.08; relative viability (VE-821 + Foretinib; first compound 2.53 µM): 1.06; relative viability (VE-821 + Foretinib; first compound 8 µM): 0.553; relative viability (Ruxolitinib + Pictilisib; first compound 0.08 µM): 0.738; relative viability (Ruxolitinib + Pictilisib; first compound 0.253 µM): 0.853; relative viability (Ruxolitinib + Pictilisib; first compound 0.8 µM): 1.05; relative viability (Ruxolitinib + Pictilisib; first compound 2.53 µM): 0.958; relative viability (Ruxolitinib + Pictilisib; first compound 8 µM): 0.927; relative viability (VE-821 + Pictilisib; first compound 0.08 µM): 0.933; relative viability (VE-821 + Pictilisib; first compound 0.253 µM): 0.781; relative viability (VE-821 + Pictilisib; first compound 0.8 µM): 0.613; relative viability (VE-821 + Pictilisib; first compound 2.53 µM): 0.84; relative viability (VE-821 + Pictilisib; first compound 8 µM): 0.4
